In ChEMBL document CHEMBL1201862, “PubChem BioAssay data set” (2004):
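Five concentrations, 48 hours, 96-well plates. GI50 is the concentration that inhibits growth by half.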 Active and inactive are the calls of the source. No stated cut-off is given here; in the data, active = GI50 up to about 1.1 µM and inactive = higher.

Tests used:
Assay in all cases: growth of human tumour cells (NCI), 48 h
SF-539 = tested on: SF-539
U-251 = tested on: U-251
SR = tested on: SR
UACC-62 = tested on: UACC-62
EKVX = tested on: EKVX
KM12 = tested on: KM12
SNB-19 = tested on: SNB-19
SF-268 = tested on: SF-268
HOP-92 = tested on: HOP-92
K562 = tested on: K562
NCI/ADR-RES = tested on: NCI/ADR-RES
OVCAR-3 = tested on: OVCAR-3
MDA-N = tested on: MDA-N
PC-3 = tested on: PC-3
ACHN = tested on: ACHN
SK-OV-3 = tested on: SK-OV-3
UO-31 = tested on: UO-31
Hs-578T = tested on: Hs-578T
SF-295 = tested on: SF-295
LOX IMVI = tested on: LOX IMVI

| SMILES | GI50 (SF-539) | GI50 (U-251) | GI50 (SR) | GI50 (UACC-62) | GI50 (EKVX) | GI50 (KM12) | GI50 (SNB-19) | GI50 (SF-268) | GI50 (HOP-92) | GI50 (K562) | GI50 (NCI/ADR-RES) | GI50 (OVCAR-3) | GI50 (MDA-N) | GI50 (PC-3) | GI50 (ACHN) | GI50 (SK-OV-3) | GI50 (UO-31) | GI50 (Hs-578T) | GI50 (SF-295) | GI50 (LOX IMVI) |
| --- | --- | --- | --- | --- | --- | --- | --- | --- | --- | --- | --- | --- | --- | --- | --- | --- | --- | --- | --- | --- |
| N#CSC#Cc1ccc(C#CSC#N)cc1 | 20.9 µM (inactive) | 21.5 µM (inactive) | 51.5 µM (inactive) | 18.1 µM (inactive) | 18.5 µM (inactive) | 19.4 µM (inactive) | 21.3 µM (inactive) | 21.5 µM (inactive) | 12.5 µM (inactive) | 39.1 µM (inactive) | 19.2 µM (inactive) | 19.3 µM (inactive) | 17.8 µM (inactive) | 15.6 µM (inactive) | 16.5 µM (inactive) | 22.6 µM (inactive) | 17.2 µM (inactive) | 15.7 µM (inactive) | 20.9 µM (inactive) | 16.3 µM (inactive) |
| Cn1nnc2c(C(N)=S)ncn2c1=O | > 100 µM (inactive) | > 100 µM (inactive) | > 100 µM (inactive) | > 100 µM (inactive) | > 100 µM (inactive) | > 100 µM (inactive) | > 100 µM (inactive) | > 100 µM (inactive) | > 100 µM (inactive) | > 100 µM (inactive) | > 100 µM (inactive) | > 100 µM (inactive) | > 100 µM (inactive) | > 100 µM (inactive) | > 100 µM (inactive) | > 100 µM (inactive) | > 100 µM (inactive) | > 100 µM (inactive) | 74.1 µM (inactive) | > 100 µM (inactive) |
| C=O.NNCCc1n[nH]c(=O)n1N | > 100 µM (inactive) | > 100 µM (inactive) | > 100 µM (inactive) | > 100 µM (inactive) | > 100 µM (inactive) | > 100 µM (inactive) | > 100 µM (inactive) | > 100 µM (inactive) | > 100 µM (inactive) | > 100 µM (inactive) | > 100 µM (inactive) | > 100 µM (inactive) | > 100 µM (inactive) | > 100 µM (inactive) | > 100 µM (inactive) | > 100 µM (inactive) | > 100 µM (inactive) | > 100 µM (inactive) | > 100 µM (inactive) | > 100 µM (inactive) |
| CC(C)C(Br)C(=O)NCC(=O)O (stereo not given) | > 100 µM (inactive) | > 100 µM (inactive) | > 100 µM (inactive) | > 100 µM (inactive) | > 100 µM (inactive) | > 100 µM (inactive) | > 100 µM (inactive) | > 100 µM (inactive) | > 100 µM (inactive) | > 100 µM (inactive) | > 100 µM (inactive) | > 100 µM (inactive) | > 100 µM (inactive) | > 100 µM (inactive) | > 100 µM (inactive) | > 100 µM (inactive) | > 100 µM (inactive) | > 100 µM (inactive) | > 100 µM (inactive) | > 100 µM (inactive) |
| COC(=O)c1cc(C#N)[nH]c1-c1cc(Br)cs1 | 14.3 µM (inactive) | 13.3 µM (inactive) | 24.9 µM (inactive) | 15.8 µM (inactive) | 16.1 µM (inactive) | 20.7 µM (inactive) | 15 µM (inactive) | 17.7 µM (inactive) | 3.61 µM (inactive) | 20.3 µM (inactive) | 13.4 µM (inactive) | 4.78 µM (inactive) | 15.4 µM (inactive) | 12.2 µM (inactive) | 19.6 µM (inactive) | 13.4 µM (inactive) | 10 µM (inactive) | 14.5 µM (inactive) | 10 µM (inactive) | 11.3 µM (inactive) |
| CC1(C)C(C(=O)OC(C#N)c2cccc(OCC(=O)OCc3ccccc3)c2)C1(C)C (stereo not given) | > 100 µM (inactive) | > 100 µM (inactive) | 0.251 µM (active) | > 100 µM (inactive) | > 100 µM (inactive) | > 100 µM (inactive) | > 100 µM (inactive) | > 100 µM (inactive) | > 100 µM (inactive) | 2.36 µM (inactive) | 81.5 µM (inactive) | > 100 µM (inactive) | > 100 µM (inactive) | > 100 µM (inactive) | > 100 µM (inactive) | > 100 µM (inactive) | > 100 µM (inactive) | > 100 µM (inactive) | > 100 µM (inactive) | 95.7 µM (inactive) |
| CCCN(CCC)C(=S)N/N=C/c1cccc(C)n1 | 0.214 µM (active) | < 0.01 µM (active) | 0.0571 µM (active) | 0.303 µM (active) | 0.552 µM (active) | 0.107 µM (active) | 0.533 µM (active) | 0.023 µM (active) | 0.391 µM (active) | < 0.01 µM (active) | < 0.01 µM (active) | < 0.01 µM (active) | 0.621 µM (active) | 0.0773 µM (active) | 0.177 µM (active) | 0.718 µM (active) | 0.177 µM (active) | 2.16 µM (inactive) | 0.258 µM (active) | 0.141 µM (active) |
| Cc1cnc2nc(-c3ccc(Cl)cc3)cc(O)c2c1 | 2.37 µM (inactive) | 3.9 µM (inactive) | 0.598 µM (active) | 5.5 µM (inactive) | 18.5 µM (inactive) | 3.76 µM (inactive) | 5.35 µM (inactive) | 19.7 µM (inactive) | 2.32 µM (inactive) | 1.07 µM (active) | 6.1 µM (inactive) | 2.95 µM (inactive) | 0.959 µM (active) | 2.12 µM (inactive) | 6.21 µM (inactive) | 18.4 µM (inactive) | 8.59 µM (inactive) | 6.7 µM (inactive) | 3.55 µM (inactive) | 4.63 µM (inactive) |
| O=C(CN(C(=O)OC12CC3CC(CC(C3)C1)C2)C(=O)OC12CC3CC(CC(C3)C1)C2)Oc1ccc([N+](=O)[O-])cc1 | > 100 µM (inactive) | 69.3 µM (inactive) | > 100 µM (inactive) | > 100 µM (inactive) | > 100 µM (inactive) | > 100 µM (inactive) | > 100 µM (inactive) | > 100 µM (inactive) | > 100 µM (inactive) | 58.1 µM (inactive) | 85.3 µM (inactive) | > 100 µM (inactive) | > 100 µM (inactive) | 16.1 µM (inactive) | > 100 µM (inactive) | > 100 µM (inactive) | > 100 µM (inactive) | > 100 µM (inactive) | > 100 µM (inactive) | > 100 µM (inactive) |
| CCOP(=O)(OCC)C1(O)CC(n2cc(C)c(=O)[nH]c2=O)OC1CO (stereo not given) | > 100 µM (inactive) | > 100 µM (inactive) | > 100 µM (inactive) | > 100 µM (inactive) | > 100 µM (inactive) | > 100 µM (inactive) | > 100 µM (inactive) | > 100 µM (inactive) | > 100 µM (inactive) | > 100 µM (inactive) | > 100 µM (inactive) | > 100 µM (inactive) | > 100 µM (inactive) | > 100 µM (inactive) | > 100 µM (inactive) | > 100 µM (inactive) | > 100 µM (inactive) | > 100 µM (inactive) | > 100 µM (inactive) | > 100 µM (inactive) |
| COC(=O)c1c(C)nc(C)c(NO)c1-c1ccccc1C(F)(F)F | 16 µM (inactive) | > 100 µM (inactive) | 30.2 µM (inactive) | 64.9 µM (inactive) | 83 µM (inactive) | 34.7 µM (inactive) | > 100 µM (inactive) | 41.4 µM (inactive) | 14.2 µM (inactive) | 28.3 µM (inactive) | 18.2 µM (inactive) | 16.7 µM (inactive) | 16.8 µM (inactive) | 70.5 µM (inactive) | 30.8 µM (inactive) | > 100 µM (inactive) | 29.5 µM (inactive) | 62.4 µM (inactive) | > 100 µM (inactive) | 38.3 µM (inactive) |
| CN(NC(=O)c1ccco1)C1=NCCN1 | > 100 µM (inactive) | > 100 µM (inactive) | > 100 µM (inactive) | > 100 µM (inactive) | > 100 µM (inactive) | > 100 µM (inactive) | > 100 µM (inactive) | > 100 µM (inactive) | > 100 µM (inactive) | > 100 µM (inactive) | > 100 µM (inactive) | > 100 µM (inactive) | > 100 µM (inactive) | > 100 µM (inactive) | > 100 µM (inactive) | > 100 µM (inactive) | > 100 µM (inactive) | > 100 µM (inactive) | > 100 µM (inactive) | > 100 µM (inactive) |
